In assay [1] the target is T1, Cyclin-dependent kinase-like 5 (Homo sapiens) (UniProt O76039).
T1 sequence (whole entry): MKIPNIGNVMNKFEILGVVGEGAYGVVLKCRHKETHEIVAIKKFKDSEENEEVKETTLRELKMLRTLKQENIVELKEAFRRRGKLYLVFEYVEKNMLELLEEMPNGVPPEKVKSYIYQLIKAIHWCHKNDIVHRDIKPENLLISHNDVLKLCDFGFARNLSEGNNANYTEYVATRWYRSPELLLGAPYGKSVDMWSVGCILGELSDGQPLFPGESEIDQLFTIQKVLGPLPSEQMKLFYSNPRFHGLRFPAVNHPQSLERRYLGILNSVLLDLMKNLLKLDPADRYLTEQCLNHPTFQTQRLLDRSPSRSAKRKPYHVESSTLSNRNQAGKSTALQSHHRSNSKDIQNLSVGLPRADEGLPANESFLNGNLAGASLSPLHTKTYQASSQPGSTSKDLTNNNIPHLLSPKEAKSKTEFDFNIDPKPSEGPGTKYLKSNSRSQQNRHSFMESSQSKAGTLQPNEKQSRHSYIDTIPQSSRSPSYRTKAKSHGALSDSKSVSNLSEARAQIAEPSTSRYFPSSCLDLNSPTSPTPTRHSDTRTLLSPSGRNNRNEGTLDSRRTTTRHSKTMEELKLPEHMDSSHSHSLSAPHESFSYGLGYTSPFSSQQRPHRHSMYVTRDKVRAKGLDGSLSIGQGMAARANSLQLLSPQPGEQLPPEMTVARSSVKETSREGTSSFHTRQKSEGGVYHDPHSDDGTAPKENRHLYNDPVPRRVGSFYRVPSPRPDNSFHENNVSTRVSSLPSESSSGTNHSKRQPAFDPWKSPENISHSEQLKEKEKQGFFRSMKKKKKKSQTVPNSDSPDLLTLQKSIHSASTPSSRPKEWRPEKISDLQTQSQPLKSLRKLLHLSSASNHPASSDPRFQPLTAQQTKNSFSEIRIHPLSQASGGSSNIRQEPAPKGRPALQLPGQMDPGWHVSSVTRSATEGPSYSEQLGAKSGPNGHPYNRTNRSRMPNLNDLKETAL
In words: Inhibition of CDKL5 (unknown origin) assessed as residual activity at 100 nM by KINOMEscan analysis relative to control.

For assay [2], the target named is T2, Serine/threonine-protein kinase 36 (Homo sapiens) (UniProt Q9NRP7).
T2 sequence (whole entry): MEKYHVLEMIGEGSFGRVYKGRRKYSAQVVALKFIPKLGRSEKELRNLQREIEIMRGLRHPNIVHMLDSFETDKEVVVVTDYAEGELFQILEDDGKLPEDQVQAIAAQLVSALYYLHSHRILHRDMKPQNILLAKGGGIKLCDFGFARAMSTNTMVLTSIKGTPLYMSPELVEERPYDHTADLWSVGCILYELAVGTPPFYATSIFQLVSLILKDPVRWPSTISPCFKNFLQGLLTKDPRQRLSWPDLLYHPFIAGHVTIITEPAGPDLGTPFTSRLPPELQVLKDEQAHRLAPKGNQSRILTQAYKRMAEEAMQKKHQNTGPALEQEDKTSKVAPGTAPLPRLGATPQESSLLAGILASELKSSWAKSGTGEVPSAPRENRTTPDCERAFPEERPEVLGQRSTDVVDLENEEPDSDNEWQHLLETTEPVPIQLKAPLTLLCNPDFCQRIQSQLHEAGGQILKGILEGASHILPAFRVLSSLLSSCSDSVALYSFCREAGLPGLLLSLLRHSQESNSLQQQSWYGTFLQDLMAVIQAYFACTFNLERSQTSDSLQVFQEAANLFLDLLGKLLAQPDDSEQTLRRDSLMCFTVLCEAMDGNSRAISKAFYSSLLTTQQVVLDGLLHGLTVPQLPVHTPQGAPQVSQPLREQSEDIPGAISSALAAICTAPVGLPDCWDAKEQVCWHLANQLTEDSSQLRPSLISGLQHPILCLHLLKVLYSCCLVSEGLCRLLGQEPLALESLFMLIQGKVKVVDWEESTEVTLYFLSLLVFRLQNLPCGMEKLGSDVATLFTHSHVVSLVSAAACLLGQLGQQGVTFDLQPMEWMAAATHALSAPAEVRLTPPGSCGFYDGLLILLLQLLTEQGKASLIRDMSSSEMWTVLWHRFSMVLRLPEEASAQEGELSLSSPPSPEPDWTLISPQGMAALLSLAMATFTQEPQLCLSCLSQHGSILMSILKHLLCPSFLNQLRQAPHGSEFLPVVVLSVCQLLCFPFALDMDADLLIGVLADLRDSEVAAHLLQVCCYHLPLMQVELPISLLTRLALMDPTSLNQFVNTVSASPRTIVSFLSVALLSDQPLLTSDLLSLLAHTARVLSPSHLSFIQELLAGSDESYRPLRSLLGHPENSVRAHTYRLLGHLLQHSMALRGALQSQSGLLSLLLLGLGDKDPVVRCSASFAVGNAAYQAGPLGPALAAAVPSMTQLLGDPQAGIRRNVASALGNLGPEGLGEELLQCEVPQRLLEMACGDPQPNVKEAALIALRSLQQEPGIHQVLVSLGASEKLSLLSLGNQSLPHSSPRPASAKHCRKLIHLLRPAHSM
The experiment in a line: Inhibition of STK36 (unknown origin) assessed as residual activity at 100 nM by KINOMEscan analysis relative to control.

For assay [3], the system named is Fibroblast growth factor receptor 3 (Homo sapiens), P22607 [G697C]. The experiment in a line: Inhibition of FGFR3 G697C mutant (unknown origin) assessed as residual activity at 100 nM by KINOMEscan analysis relative to control.
Assay [4] relates to Proto-oncogene tyrosine-protein kinase receptor Ret (Homo sapiens), P07949 [M918T]. The experiment in a line: Inhibition of RET M918T mutant (unknown origin) assessed as residual activity at 100 nM by KINOMEscan analysis relative to control.

Each structure is given as a SMILES string.

Fibroblast growth factor receptor 3 (Homo sapiens), P22607 [G697C], sequence (P22607 whole entry G697C): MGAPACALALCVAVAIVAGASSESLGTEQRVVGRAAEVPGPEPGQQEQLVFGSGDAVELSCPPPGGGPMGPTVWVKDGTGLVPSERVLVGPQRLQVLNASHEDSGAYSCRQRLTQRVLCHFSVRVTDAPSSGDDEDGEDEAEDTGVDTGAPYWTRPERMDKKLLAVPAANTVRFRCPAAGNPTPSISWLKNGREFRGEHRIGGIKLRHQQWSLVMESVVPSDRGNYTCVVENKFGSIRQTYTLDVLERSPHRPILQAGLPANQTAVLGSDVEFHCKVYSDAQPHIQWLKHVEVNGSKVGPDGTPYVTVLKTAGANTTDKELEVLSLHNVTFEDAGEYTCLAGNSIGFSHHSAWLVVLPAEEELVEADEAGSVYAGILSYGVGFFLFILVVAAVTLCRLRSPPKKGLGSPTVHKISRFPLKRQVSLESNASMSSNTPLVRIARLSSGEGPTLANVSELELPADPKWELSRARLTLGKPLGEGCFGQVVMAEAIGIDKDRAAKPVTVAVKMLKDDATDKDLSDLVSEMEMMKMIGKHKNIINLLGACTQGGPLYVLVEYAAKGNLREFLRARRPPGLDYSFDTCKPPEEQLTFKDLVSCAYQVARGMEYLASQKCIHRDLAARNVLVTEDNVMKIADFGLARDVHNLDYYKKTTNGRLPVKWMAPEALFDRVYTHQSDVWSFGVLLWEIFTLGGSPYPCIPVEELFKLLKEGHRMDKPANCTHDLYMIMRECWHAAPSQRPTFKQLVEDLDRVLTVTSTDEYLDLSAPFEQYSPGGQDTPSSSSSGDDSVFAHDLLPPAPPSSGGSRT
Proto-oncogene tyrosine-protein kinase receptor Ret (Homo sapiens), P07949 [M918T], sequence (P07949 whole entry M918T): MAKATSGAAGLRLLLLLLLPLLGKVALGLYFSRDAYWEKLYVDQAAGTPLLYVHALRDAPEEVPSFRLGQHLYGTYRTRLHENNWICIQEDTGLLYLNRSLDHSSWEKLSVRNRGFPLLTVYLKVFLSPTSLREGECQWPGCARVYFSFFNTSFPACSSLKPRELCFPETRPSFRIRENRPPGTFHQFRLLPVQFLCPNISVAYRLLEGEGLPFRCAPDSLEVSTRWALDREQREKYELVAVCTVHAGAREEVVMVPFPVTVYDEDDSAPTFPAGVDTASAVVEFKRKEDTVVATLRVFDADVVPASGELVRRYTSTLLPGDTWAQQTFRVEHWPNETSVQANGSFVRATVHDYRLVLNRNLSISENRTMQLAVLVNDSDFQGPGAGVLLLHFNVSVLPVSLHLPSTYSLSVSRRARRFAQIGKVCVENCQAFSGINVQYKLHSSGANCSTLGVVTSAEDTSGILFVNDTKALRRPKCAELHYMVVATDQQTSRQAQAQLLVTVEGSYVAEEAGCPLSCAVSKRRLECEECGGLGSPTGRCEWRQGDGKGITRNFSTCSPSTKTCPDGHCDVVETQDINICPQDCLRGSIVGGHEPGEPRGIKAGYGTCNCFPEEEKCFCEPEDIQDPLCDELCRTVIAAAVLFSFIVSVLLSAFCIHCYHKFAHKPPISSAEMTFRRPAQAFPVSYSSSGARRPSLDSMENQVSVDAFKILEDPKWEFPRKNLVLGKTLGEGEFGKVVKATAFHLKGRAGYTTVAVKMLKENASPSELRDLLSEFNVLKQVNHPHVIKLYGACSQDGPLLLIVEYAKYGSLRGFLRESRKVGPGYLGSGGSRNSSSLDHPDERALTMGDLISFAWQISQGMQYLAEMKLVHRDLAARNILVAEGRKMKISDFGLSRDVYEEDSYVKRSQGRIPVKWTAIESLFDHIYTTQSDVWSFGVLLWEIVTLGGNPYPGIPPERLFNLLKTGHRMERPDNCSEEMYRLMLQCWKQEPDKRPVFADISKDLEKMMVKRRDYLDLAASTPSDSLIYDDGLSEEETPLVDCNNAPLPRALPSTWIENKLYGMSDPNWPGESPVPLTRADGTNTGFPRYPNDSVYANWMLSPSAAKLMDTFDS

Consider `COc1cc2ncnc(N[C@H](C)c3cccc4ccccc34)c2cc1OC`, for which the Activity in assay [1] came to 96%; in assay [2] it was 80%; in assay [3], 66%; in assay [4], 99%.

Source of the values: ChEMBL document CHEMBL5678818, “Discovery of potent SOS1 inhibitors that block RAS activation via disruption of the RAS-SOS1 interaction” (Proc Natl Acad Sci U S A, 2019).
